Data from ChEMBL document CHEMBL3885861, “Open TG-GATES”.

Species: Rattus norvegicus
Assay: Open TG-GATES - Regimen: Daily Repeat
Format: toxicity, organism-based, Sprague-Dawley
Parameters: regimen Daily Repeat, gender Male, age 6 weeks
Conditions: in vivo, po, 30 mg/kg, […], route gavage, dose level High; for KIDNEY_L / KIDNEY_R / KIDNEY_TOTAL: tissue Kidney; for LIVER: tissue Liver; for A/G / ALP / ALT / AST / BUN / CRE / Ca / Cl / DBIL / GLC / IP / K / LDH / Na / PL / RALB / TBIL / TC / TG / TP / gamma-GTP: tissue Plasma

`Nc1c2c(nc3ccccc13)CCCC2` [TACRINE] was tested, and the Lym (tissue Blood, time 28 day) was 74%, the MCH (tissue Blood, time 28 day) was 20.1 pg and the MCHC (tissue Blood, time 28 day) was 36.4%. The MCV (tissue Blood, time 28 day) was 55.1 fL, the Mono (tissue Blood, time 28 day) was 2% and the Neu (tissue Blood, time 28 day) was 22%. For the same compound, the PT (tissue Blood, time 28 day) was 16.5 s, the Plat (tissue Blood, time 28 day) was 114.6 x10_4/uL and the RBC (tissue Blood, time 28 day) was 748 x10_4/ul. For the same compound, the Ret (tissue Blood, time 28 day) was 3.3%, the WBC (tissue Blood, time 28 day) was 119.9 x10_2/uL and the KIDNEY_L (time 7 day) was 1 g. It also gave a KIDNEY_R (time 7 day) of 1 g, a KIDNEY_TOTAL (time 7 day) of 1.9 g and a KIDNEY_L (time 14 day) of 1.1 g. The KIDNEY_R (time 14 day) was 1.1 g, the KIDNEY_TOTAL (time 14 day) was 2.2 g and the KIDNEY_L (time 28 day) was 1.2 g. The KIDNEY_R (time 28 day) was 1.2 g, the KIDNEY_TOTAL (time 28 day) was 2.4 g and the LIVER (time 7 day) was 8.9 g. The LIVER (time 14 day) was 9.8 g, the LIVER (time 28 day) was 11.2 g and the A/G (time 7 day) was 1.2. For the same compound, the ALP (time 7 day) was 923 IU/L, the ALT (time 7 day) was 41 IU/L and the AST (time 7 day) was 79.7 IU/L. The BUN (time 7 day) was 15 mg/dL, the CRE (time 7 day) was 0.2 mg/dL and the Ca (time 7 day) was 10.9 mg/dL. It also gave a Cl (time 7 day) of 105.7 meq/L, a DBIL (time 7 day) of 0.0033 mg/dL and a GLC (time 7 day) of 176.3 mg/dL. The IP (time 7 day) was 9.6 mg/dL, the K (time 7 day) was 4.2 meq/L and the LDH (time 7 day) was 268.3 IU/L. It also gave a Na (time 7 day) of 141 meq/L, a PL (time 7 day) of 140.7 mg/dL and an RALB (time 7 day) of 3 g/dL. For the same compound, the TBIL (time 7 day) was 0.0167 mg/dL, the TC (time 7 day) was 70.7 mg/dL and the TG (time 7 day) was 95.7 mg/dL. For the same compound, the TP (time 7 day) was 5.6 g/dL, the gamma-GTP (time 7 day) was 1 IU/L and the A/G (time 14 day) was 1.2. For the same compound, the ALP (time 14 day) was 1172 IU/L, the ALT (time 14 day) was 39 IU/L and the AST (time 14 day) was 74.7 IU/L. The BUN (time 14 day) was 19.7 mg/dL, the CRE (time 14 day) was 0.2 mg/dL and the Ca (time 14 day) was 10.9 mg/dL. It also gave a Cl (time 14 day) of 106.3 meq/L, a DBIL (time 14 day) of 0 mg/dL and a GLC (time 14 day) of 174 mg/dL. The IP (time 14 day) was 8.1 mg/dL, the K (time 14 day) was 4.6 meq/L and the LDH (time 14 day) was 212.7 IU/L. The Na (time 14 day) was 141 meq/L, the PL (time 14 day) was 143 mg/dL and the RALB (time 14 day) was 3 g/dL. It also gave a TBIL (time 14 day) of 0.02 mg/dL, a TC (time 14 day) of 69.3 mg/dL and a TG (time 14 day) of 104 mg/dL. For the same compound, the TP (time 14 day) was 5.5 g/dL, the gamma-GTP (time 14 day) was 1 IU/L and the A/G (time 28 day) was 1. It also gave an ALP (time 28 day) of 1280 IU/L, an ALT (time 28 day) of 35 IU/L and an AST (time 28 day) of 81 IU/L. It also gave a BUN (time 28 day) of 17 mg/dL, a CRE (time 28 day) of 0.2 mg/dL and a Ca (time 28 day) of 10.4 mg/dL. It also gave a Cl (time 28 day) of 106 meq/L, a DBIL (time 28 day) of 0 mg/dL and a GLC (time 28 day) of 160 mg/dL. It also gave an IP (time 28 day) of 8.2 mg/dL, a K (time 28 day) of 4.2 meq/L and an LDH (time 28 day) of 96 IU/L. For the same compound, the Na (time 28 day) was 143 meq/L, the PL (time 28 day) was 128 mg/dL and the RALB (time 28 day) was 2.9 g/dL. The TBIL (time 28 day) was 0.03 mg/dL, the TC (time 28 day) was 71 mg/dL and the TG (time 28 day) was 64 mg/dL. It also gave a TP (time 28 day) of 5.7 g/dL and a gamma-GTP (time 28 day) of 1 IU/L.
